Data taken from US9050375B2, “Bi-specific digoxigenin binding antibodies” (priority 2009, dated 2015).
“And” between values parts separate entries of the source, which are not always exact repeats. Equal entries are not always repeated. {Dig} = digoxigenin coupled through a C6 amino linker; {Cy5} = Cy5 fluorescent dye label; d = 2'-deoxy (DNA); m = 2'-O-methyl; r = 2'-OH (RNA)

Tests used:
[1] = test system: Eg5 mRNA in HeLa-S3 cells; experiment: Eg5 bDNA assay of transfected siRNAs; format: cell-based, human; settings: Lipofectamine 2000 transfection, 24 hours
From the text: To evaluate whether additions or alterations of siRNAs by digoxygenin alters its biological activity, we performed in vitro assays in cell culture. For that, we chose to assess the activity of siRNA that inactivates the mRNA of Eg5. The direct effect of Eg5 siRNA activity is down-regulation of its cognate mRNA. This can be quantified by bDNA (branched DNA) assays, which detect the amount of specific mRNAs in cells (Burris et al., 1999, Molecular Endocrinology). To perform these assays, we seeded a defined number of the respective cell type into 96-well plates and allowed them to attach over night. The next day cells were transfected with desired amounts of a certain siRNA or treated with the agent whose effect on the mRNA-level should be analysed. After 24 hours the QuantiGene kit protocol was followed according to the instructions of the manufacturer (Affymetrix) in order to quantify the mRNA levels. Briefly, the cell lysates were transferred to a capture plate in the presence of a gene-specific probe set and then incubated at 53° C. over night. Wells were washed. They were then incubated at 53° C. sequentially with an Amplifier and an alkaline phosphatase-linked label probe with a wash between the incubations. After a final wash, the luminescent alkaline phosphatase substrate dioxitane was added and was incubated for 30 min at 53° C. The luminescence was detected using a InfiniteF200 luminescence reader (Tecan Austria, Gröding). The biological activity of siRNAs that target Eg5 can not only be determined by bDNA analyses, but also by the phenotype that is caused by Eg5 mRNA depletion in growing cells. Eg5 is a motor protein that belongs to the kinesin-like protein family. Eg5, also known as KSP (kinesin spindle protein), is essential for the formation of the bipolar mitotic spindle and is required for the proper separation of the spindle poles. Depletion of Eg5 leads to the formation of characteristic monoaster spindles and activates the spindle checkpoint. This causes a mitotic arrest that ultimately leads to apoptosis (Tao et. al., Molecular and cellular biology. 2007 January; 27(2):689-98) (Tao W. et. al., Cancer Cell. 2005; 8:49-59.) Because of that, inactivation of Eg5 by siRNA mediates in many cases a cytotoxic phenotype to cultured cells. Therefore, the biological activity of Eg5 siRNA can be analyzed by monitoring the number of living cells.
Table 7 summarizes the results of the bDNA and cytotox assays that we performed to compare the biological activities of transfected siRNAs with that of their transfected digoxygenated counterparts. For the bDNA assays, we seeded HeLa-S3 cells into 96-well plates and allowed them to attach over night. The next day cells were transfected with the indicated amounts of siRNA using the Lipofectamine™ 2000 transfection reagent according to the instructions of the manufacturer (Invitrogen). After 24 hours the QuantiGene kit protocol was followed according to the instructions of the manufacturer (Affymetrix) in order to quantify the mRNA levels of the Eg5 mRNA.

KPL-4 cells = experiment: Cytotox assay (CellTiter-Glo) of transfected siRNAs; format: cell-based, human; settings: Dharmafect transfection, 48 hours
Experimental: To measure the number of living cells the CellTiter-Glo Luminescent Cell Viability Assay (Promega Madison, Wis.) assay was applied according to the protocol supplied by the manufacturer. In this assay the cells are lysed and a luminescent signal proportional to the ATP amount is generated. The ATP amount is directly proportional to the number of living cells. The 96 well plates were then analyzed in a InfiniteF200 luminescence reader (Tecan Austria, Gröding).
For the cytotox assays, KPL-4 cells were seeded at a density of 7000 cells per well in 96 well plates. The cells were incubated for 24 hours at 37° C., 5% CO2 and 85% humidity in RPMI with 10% FCS and L-Glutamine. The next day cells were transfected with the indicated amounts of siRNA using the Dharmafect transfection reagent according to the instructions of the manufacturer (Dharmacon). After 48 hours the cells were treated with the CellTiter-Glo-assay reagent according to the manufacturers instructions.

[2] = Excitation and emission spectra of Cy5, Dig-Cy5 and complex; format: physicochemical
From the text: To evaluate whether digoxygenation of Cy5 alters its fluorescence features, we compared the excitation and emission spectra of Cy5 and compared it with the spectra of the newly generated Dig-Cy5 and with Dig-Cy5 within a complex with bispecific antibodies. […] We conclude that Dig-Cy5 and -complexes can be applied for antibody-mediated targeting and in vivo imaging.

Eg5-siRNA-DIG = experiment: SPR (Biacore) binding to mono-digoxygenated siRNA; settings: 25° C.
Experimental: (§2) For that, binding properties of the recombinant <Dig> derivatives were analyzed by surface plasmon resonance (SPR) technology using a Biacore T100 or Biacore 3000 instrument (GE Healthcare Bio-Sciences AB, Uppsala). […] To perform the binding studies capturing anti-human IgG antibody was immobilized on the surface of a CM5 biosensor chip using amine-coupling chemistry. Flow cells were activated with a 1:1 mixture of 0.1 M N-hydroxysuccinimide and 0.1 M 3-(N,N-dimethylamino)propyl-N-ethylcarbodiimide at a flow rate of 5 μl/min. […] A reference control flow cell was treated in the same way but with vehicle buffers only instead of the capturing antibody. Surfaces were blocked with an injection of 1 M ethanolamine/HCl pH 8.5. […]
(§3) Anti-mouse IgG antibody was immobilized on the surface of a CM5 biosensor chip in the same fashion as described above. […] The samples to be analyzed were diluted in HBS-P (10 mM HEPES, pH 7.4, 150 mM NaCl, 0.005% Surfactant P20) and injected at a flow rate of 5 μl/min. […] Signals were detected at a rate of one signal per second.
(§4) The samples to be analyzed were diluted in HBS-P and injected at a flow rate of 5 μl/min. […]

DIG-Myoglobin = experiment: SPR binding to mono-digoxygenated protein DIG-myoglobin
Experimental: (§1) For that, binding properties of the recombinant <Dig> derivatives were analyzed by surface plasmon resonance (SPR) technology using a Biacore T100 or Biacore 3000 instrument (GE Healthcare Bio-Sciences AB, Uppsala). This system is well established for the study of molecule interactions. It allows a continuous real-time monitoring of ligand/analyte bindings and thus the determination of association rate constants (ka), dissociation rate constants (kd), and equilibrium constants (KD) in various assay settings. SPR-technology is based on the measurement of the refractive index close to the surface of a gold coated biosensor chip. Changes in the refractive index indicate mass changes on the surface caused by the interaction of immobilized ligand with analyte injected in solution. If molecules bind to immobilized ligand on the surface the mass increases, in case of dissociation the mass decreases. To perform the binding studies capturing anti-human IgG antibody was immobilized on the surface of a CM5 biosensor chip using amine-coupling chemistry. Flow cells were activated with a 1:1 mixture of 0.1 M N-hydroxysuccinimide and 0.1 M 3-(N,N-dimethylamino)propyl-N-ethylcarbodiimide at a flow rate of 5 μl/min. […] A reference control flow cell was treated in the same way but with vehicle buffers only instead of the capturing antibody. Surfaces were blocked with an injection of 1 M ethanolamine/HCl pH 8.5. To compare the binding of the humanized protein variants with that of the murine <Dig> IgG from the original hybridoma 19-11, capturing anti-mouse IgG antibody was immobilized on the surface of a CM5 biosensor chip in the same fashion as described above for the anti-human IgG antibody. To evaluate the functionality of the recombinant <Dig> derivatives, binding of the recombinant hu<Dig> modules, incl. (i) humanized IgG, (ii) fusion proteins harboring hu<Dig> scFv or (iii) disulfide-stabilized scFvs was assayed with different digoxygenated antigens The resulting binding affinities were compared to the binding of the murine ‘wildtype’ DIG-IgG from which the recombinant humanized modules were derived.
Another SPR study was performed in which the binding affinity of <DIG>-hu2, IGF1R-DIG and <DIG> M-19-11 was compared in terms of binding to the mono-digoxygenated protein DIG-myoglobin.

Eg5-siRNA-(2×)DIG = experiment: SPR (Biacore) binding to bi-digoxygenated siRNA; settings: 25° C., read-out: KD, binding of siRNA-(2x)DIG
Experimental: as §2, §3, §4

DIG-siRNA2349 = experiment: SPR binding to DIG-siRNA2349; settings: analyte DIG-siRNA2349; replicate lines; listed as <DIG>M-19-11
Experimental: as §1, with “derived. […]” for “derived.”

[3] = analyte DIG-Myoglobin, replicate lines, listed as <DIG>M-19-11

## Luciferase siRNA: control siRNA, Seq. ID NO. 22/29 (chain 1 CUUACGCUGAGUACUUCGATT; chain 2 UCGAAGUACUCAGCGUAAGTT; chain 1: DNA at T, 2'-O-methyl at CU, RNA at AG, backbone not given here; chain 2: sugars from the 5' end rrrrrrmrrrmrrrrmrrrdd, backbone not given here) [reference compound]
[1]
  IC50: > 100 nM

## Eg5 siRNA: siRNA targeting Eg5, Seq. ID NO. 24/31 (chain 1 CUGAAGACCUGAAGACAAUUU; chain 2 AUUGUCUUCAGGUCUUCAGUU; chain 1: sugars from the 5' end r18 m3, backbone not given here; chain 2: RNA, backbone not given here)
KPL-4 cells
  IC50: 28 nM
[1]
  IC50: 0.016 nM

## Dig-Eg5-Cy5 siRNA: digoxygenated Cy5-labeled Eg5 siRNA, Seq. ID NO. 27/34 (chain 1 CUGAAGACCUGAAGACAAUUU; chain 2 AUUGUCUUCAGGUCUUCAGUU; chain 1: RNA, 5' {Cy5}, 3' {Dig}, backbone not given here; chain 2: RNA, backbone not given here)
KPL-4 cells
  IC50: 215 nM
[1]
  IC50: 0.013 nM

## Dig-Eg5 siRNA: mono-digoxygenated Eg5 siRNA, Seq. ID NO. 25/32 (chain 1 CUGAAGACCUGAAGACAAUUU; chain 2 AUUGUCUUCAGGUCUUCAGUU; chain 1: 2'-O-methyl at CU, RNA at AG, 3' {Dig}, backbone not given here; chain 2: RNA, backbone not given here; further chemistry not fully specified)
KPL-4 cells
  IC50: 4 nM
[1]
  IC50: 0.035 nM

## Dig-Luciferase siRNA: digoxygenated luciferase siRNA, Seq. ID NO. 23/30 (chain 1 CUUACGCUGAGUACUUCGATT; chain 2 UCGAAGUACUCAGCGUAAGTT; chain 1: DNA at T, 2'-O-methyl at CU, RNA at AG, 3' {Dig}, backbone not given here; chain 2: sugars from the 5' end rrrrrrmrrrmrrrrmrrrdd, backbone not given here; further chemistry not fully specified)
[1]
  IC50: > 100 nM

## Cy5 [reference compound]
[2]
  Emission wavelength (max.): at 670 nm
  Excitation wavelength: 575-605 nm

B1: murine DIG-IgG 19-11: hybridoma clone 19-11 derived murine anti-digoxigenin IgG1 kappa; VL Seq. ID. NO. 1, VH Seq. ID. NO. 2 (antibody, listed as Mus musculus, V domains shown)
VH: MNFVLSLIFLALILKGVQCEVQLVESGGGLVKPGGSLKLSCAVSGFTFSDYAMSWIRQTPENRLEWVASINIGATYAYYPDSVKGRFTISRDNAKNTLFLQMSSLGSEDTAMYYCARPGSPYEYDKAYYSMAYWGPGTSVTVSS
VL: MSSAQFLGLLLLCFQGTRCDVQMTQSTSSLSASLGDRVTISCRASQDIKNYLNWYQQKPGGTVKLLIYYSSTLLSGVPSRFSGRGSGTDFSLTITNLEREDIATYFCQQSITLPPTFGGGTKLEIK
notes: hybridoma clone 19-11 derived murine anti-digoxigenin IgG1 kappa; ID; NO
Eg5-siRNA-DIG
  Kd: 0.269 nM
DIG-Myoglobin; SPR
  affinity to DIG-Myo compared with <DIG>-hu2 and disulfide-stabilized <DIG> scFv: about a hundred fold better
DIG-Myoglobin; [3]
  ka: 1.75e+06 M⁻¹ s⁻¹ and 2.28e+06 M⁻¹ s⁻¹
  kd: 0.000676 s⁻¹ and 0.000675 s⁻¹
Eg5-siRNA-(2×)DIG
  Kd: 0.017 nM
DIG-siRNA2349
  Kd: 0.276 nM and 0.371 nM
  ka: 3.27e+06 M⁻¹ s⁻¹ and 2.26e+06 M⁻¹ s⁻¹
  kd: 0.000903 s⁻¹ and 0.000838 s⁻¹
